Assay results reported in PubChem BioAssay (NCI).
Where “and” joins values, the source holds several entries; their conditions need not be identical. Equal entries are not always repeated.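 96-well plates; 48 h exposure; 5 concentrations. Endpoints by linear interpolation between flanking doses. Not reached: highest tested concentration assigned. GI50 is the concentration that inhibits growth by half. TGI: concentration producing complete growth inhibition.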

Assays:
Assay in all cases: growth of human tumour cells (NCI), 48 h
[1] = tested on: SN12C renal
[2] = tested on: SNB-75 CNS
[3] = tested on: 786-0 renal
[4] = tested on: UACC-257 melanoma
[5] = tested on: UO-31 renal
[6] = tested on: TK-10 renal
[7] = tested on: HCT-116 colon
[8] = tested on: OVCAR-3 ovarian
[9] = tested on: MDA-MB-435
[10] = tested on: NCI/ADR-RES ovarian

Structure (SMILES) | TGI [1] [µM] | TGI [2] [µM] | TGI [3] [µM] | TGI [4] | TGI [5] | TGI [6] [µM] | TGI [7] | TGI [8] [µM] | GI50 [2] [µM] | GI50 [4] [µM] | TGI [9] [µM] | GI50 [1] [µM] | GI50 [3] [µM] | GI50 [5] [µM] | GI50 [6] [µM] | GI50 [7] [µM] | GI50 [8] [µM] | GI50 [9] [µM] | GI50 [10] [µM] | TGI [10] [µM]
Cn1c(=O)nc2n(-c3cccc(F)c3)c3ccccc3nc-2c1=O | 73.9 | 78.5 | > 100 | 28.1 µM | > 100 µM | > 100 | 77.8 µM | 21.5 |  |  |  |  |  |  |  |  |  |  |  | 
CO/C1=C\C(C)=C\C(C)C(O)C(C)C/C(C)=C/C=C/C(OC)C(C(C)C(O)C(C)C2(O)CC(O)C(C)C(C(C)C)O2)OC1=O (stereo not given) | 17.6 |  | 10.4 | 0.0699 µM and 0.0653 µM | 0.0587 µM and 0.0234 µM | 29.5 |  |  | 0.0396 | 0.0248 | 0.0042 |  |  |  |  |  |  |  |  | 
Cc1c(C(=O)NCCO)[n+](=O)c2cc(Cl)ccc2n1[O-] | > 100 | > 100 | > 100 | > 100 µM | > 100 µM | > 100 | > 100 µM | > 100 |  |  |  |  |  |  |  |  |  |  |  | 
CC1(C)OC(=O)C=C([O-])O1.CC1(C)OC(=O)C=C([O-])O1.O=S(=O)([O-])c1ccc([O-])c2ncccc12.O=S(=O)([O-])c1ccc([O-])c2ncccc12.[Ti+4] | > 100 | > 100 | > 100 | > 100 µM | > 100 µM | > 100 | > 100 µM | > 100 | > 100 | > 100 |  | > 100 | > 100 | > 100 | > 100 | 41.8 | 86.4 |  |  | 
Cc1ccc(S(=O)(=O)NC(=O)NC23CC4CC(CC(F)(C4)C2)C3)cc1 |  | > 100 | > 100 | > 100 µM | > 100 µM | > 100 | > 100 µM | > 100 |  |  |  |  |  |  |  |  |  |  |  | 
CC(=O)OC1CC2C(C)(C)C(=O)C=C[C@]2(C)C2CCC3(C)C(c4ccoc4)C(=O)[C@H]4O[C@]43[C@]12C (stereo not given in full) | 66.1 | > 100 | 35.5 |  | 32.7 µM | > 100 | 28.7 µM |  |  |  |  |  |  |  |  |  |  |  |  | 
NC(=O)N/N=C/C(/C=N/NC(N)=O)[N+](=O)[O-] | > 100 | > 100 | > 100 | > 100 µM |  | > 100 | > 100 µM | > 100 |  |  |  |  |  |  |  |  |  |  |  | 
CCCCCC(=O)c1ccc2[nH]c3c(C)cc([N+](=O)[O-])c(C)c3c2c1 | > 100 | > 100 | > 100 | > 100 µM | > 100 µM | > 100 | > 100 µM | > 100 |  |  |  |  |  |  |  |  |  |  |  | 
CC(=O)O[C@H]1CC[C@@]2(C)C(=CC[C@H]3[C@@H]4C/C(=C\c5cccc(OCCN6CCOCC6)c5)[C@H](OC(C)=O)[C@@]4(C)CC[C@@H]32)C1 | > 100 | 22.8 | 7.96 | 5.04 µM | 19.3 µM | 48.7 | 15.9 µM | > 100 | 3.85 | 2.79 | 23.1 | 25 | 2.63 | 6.43 | 11.6 | 4.1 | 44.7 | 11.1 |  | 
COc1ccc2c(c1OC)C1=C(C2=O)c2cc3c(cc2CCN1)OCO3 | > 100 | 5.9 | > 100 | > 100 µM | > 100 µM | > 100 | > 100 µM | 90.7 |  |  |  |  |  |  |  |  |  |  |  | 
CCNC(=O)C#CC(=O)NCC | > 100 | > 100 | > 100 | > 100 µM | > 100 µM | > 100 | > 10 µM and 47.7 µM | > 100 | > 10 | > 10 |  | > 10 | > 10 | > 10 | > 10 | > 10 | > 10 |  |  | 
O=S(=O)(NCC1CCC(CNc2ccc(Cl)cc2)CC1)c1ccc(-c2ccccc2)cc1 (stereo not given) | > 50 |  | > 50 | > 50 µM | > 50 µM | > 50 | > 50 µM | > 50 |  | > 50 | > 50 | > 50 | > 50 | > 50 | 22.8 | 32.2 | 10.7 | > 50 | > 50 | > 50
COc1ccc(C(N)=O)cc1N=NN(C)C | > 100 | > 100 | > 100 | > 100 µM | > 100 µM | > 100 | > 100 µM | > 100 |  |  |  |  |  |  |  |  |  |  |  | 
CN1NC2(CCCCC2)ON=C1c1ccccc1 | > 100 | > 100 | > 100 | > 100 µM |  | > 100 | > 100 µM | > 100 |  |  |  |  |  |  |  |  |  |  |  | 
ClC(Cl)c1nc(-c2cccnc2)n2nc(-c3ccccc3)cc2n1 |  |  | > 100 | 6.08 µM |  | 6.49 | 6.29 µM | 4.16 |  | 2.39 | 2.82 |  | 3.05 |  | 1.84 | 1.43 | 1.61 | 1.34 | 1.14 | 4.18
CN(C)CCCN1c2nc3ccccc3cc2Sc2cc3ccccc3nc21 | 2.55 |  | 2.5 | 3.53 µM | 2.71 µM | 3.1 | 2.31 µM | 2.92 |  | 1.76 | 2.96 | 1.28 | 1.24 | 1.27 | 1.65 | 1.1 | 1.53 | 1.51 | 1.88 | 5.39
O=C1C[C@@H]2C(COC(=O)c3ccccc3)N(OCc3ccccc3)C[C@@H]2O1 (stereo not given in full) | > 100 | > 100 | > 100 | > 100 µM | > 100 µM | > 100 | > 100 µM | > 100 |  |  |  |  |  |  |  |  |  |  |  | 
N=c1nnc(=O)c2c(s1)-n1ncc(C(=O)O)c1NN2 | > 100 | > 100 | > 100 |  | > 100 µM | > 100 | > 100 µM | > 100 |  |  |  |  |  |  |  |  |  |  |  | 
Cc1c(C(=O)c2ccccc2C(=O)O)c2ccccc2n1C |  | > 100 | > 100 | > 100 µM | > 100 µM | > 100 | > 100 µM | > 100 |  |  |  |  |  |  |  |  |  |  |  | 
C=C=C(CC)C(C(=O)OC)N(CC)CC (stereo not given) | > 100 | > 100 | > 100 | > 100 µM | > 100 µM | > 100 | > 100 µM | > 100 |  |  |  |  |  |  |  |  |  |  |  | 
